Experimental data: ChEMBL document CHEMBL4483862, “Open-source discovery of chemical leads for next-generation chemoprotective antimalarials” (2018)

Tested on: Plasmodium berghei
Experiment: Luciferase/luciferin-expressing antifolate-resistant parasites were used to infect a culture of HepG2 cells that were pre-incubated with compounds. Infected hepatocytes emit light due to the luciferase reaction. Assay results are presented as the percent inhibition of light emission compared to control. […]
Type: functional
Conditions: sporozoite; for IC90: read-out: LUCIFERASE INFECTION ASSAY - IC90

Row | SMILES | IC90 | also measured
1 | CC(C)(C)c1ccc(S(=O)(=O)Nc2ccc(O)c(Sc3nc4ccccc4s3)c2)cc1 | > 10 µM | IC50 (HEPG2TOX_HILL_SLOPE 0.314, HEPG2TOX_R_SQUARED 0.616, read-out: LUCIFERASE INFECTION ASSAY - IC50): > 10 µM
2 | CC(=O)Nc1cccc(-c2cc(NC=O)c3ncc(-c4ccc(C(C)=O)cc4)n3c2)c1 | > 8 µM | IC50 (HEPG2TOX_HILL_SLOPE 0.38, HEPG2TOX_R_SQUARED 0.804, PBLUC_HILL_SLOPE 0.536, PBLUC_R_SQUARED 0.0495, read-out: LUCIFERASE INFECTION ASSAY - IC50): > 8 µM
3 | c1ccc(-c2cn3c(-c4ccc5c(c4)OCO5)cnc3cn2)cc1 | > 10.5 µM | IC50 (HEPG2TOX_HILL_SLOPE 0.346, HEPG2TOX_R_SQUARED 0.507, PBLUC_HILL_SLOPE 2.83, PBLUC_R_SQUARED 0.466, read-out: LUCIFERASE INFECTION ASSAY - IC50): 9.02 µM
4 | CN(C)c1ccc(-c2cnc3cnc(-c4ccccc4N(C)C)cn23)cc1 | 0.0642 µM | IC50 (HEPG2TOX_HILL_SLOPE 0.323, HEPG2TOX_R_SQUARED 0.566, PBLUC_HILL_SLOPE 1.8, PBLUC_R_SQUARED 0.657, read-out: LUCIFERASE INFECTION ASSAY - IC50): 0.0189 µM
5 | CCN(Cc1ccc(OCc2ccccc2)cc1)C(=O)CN1CCc2cc(S(N)(=O)=O)ccc21 | > 10 µM | IC50 (HEPG2TOX_HILL_SLOPE 0.311, HEPG2TOX_R_SQUARED 0.495, read-out: LUCIFERASE INFECTION ASSAY - IC50): > 10 µM
6 | CCCc1cc(=O)n2ncc(-c3ccccc3)c2[nH]1 | 12.2 µM | IC50 (HEPG2TOX_HILL_SLOPE 0.383, HEPG2TOX_R_SQUARED 0.727, PBLUC_HILL_SLOPE 12.3, PBLUC_R_SQUARED 0.782, read-out: LUCIFERASE INFECTION ASSAY - IC50): 10.2 µM
7 | CCOc1ccccc1NC(=O)/C=C/c1nnc2c3ccccc3cnn12 | > 10 µM | IC50 (HEPG2TOX_HILL_SLOPE 0.359, HEPG2TOX_R_SQUARED 0.214, PBLUC_HILL_SLOPE 0.79, PBLUC_R_SQUARED 0.499, read-out: LUCIFERASE INFECTION ASSAY - IC50): 1.82 µM
8 | CC(C)Cc1ccc(C(C)c2nn3c(-c4cccnc4)nnc3s2)cc1 (configuration not stated) | 5.44 µM | IC50 (HEPG2TOX_HILL_SLOPE 0.365, HEPG2TOX_R_SQUARED 0.691, PBLUC_HILL_SLOPE 1.54, PBLUC_R_SQUARED 0.896, read-out: LUCIFERASE INFECTION ASSAY - IC50): 1.31 µM
9 | Clc1ccccc1C(CNc1ncnc2sccc12)N1CCCC1 (configuration not stated) | > 10 µM | IC50 (HEPG2TOX_HILL_SLOPE 0.371, HEPG2TOX_R_SQUARED 0.706, PBLUC_HILL_SLOPE 3.78, PBLUC_R_SQUARED 0.473, read-out: LUCIFERASE INFECTION ASSAY - IC50): 7.08 µM
10 | c1ccc2c(NCCNc3ncnc4ccccc34)cccc2c1 | 4.93 µM | IC50 (HEPG2TOX_HILL_SLOPE 0.364, HEPG2TOX_R_SQUARED 0.666, PBLUC_HILL_SLOPE 0.695, PBLUC_R_SQUARED 0.76, read-out: LUCIFERASE INFECTION ASSAY - IC50): 0.209 µM
11 | CNc1snc(C)c1C(=O)OCc1csc(-c2ccccc2)n1 | 1.26 µM | IC50 (HEPG2TOX_HILL_SLOPE 0.385, HEPG2TOX_R_SQUARED 0.759, PBLUC_HILL_SLOPE 1.19, PBLUC_R_SQUARED 0.693, read-out: LUCIFERASE INFECTION ASSAY - IC50): 0.2 µM
12 | CC(C)Cc1ccc(C(C)c2nn3c(-c4ccco4)nnc3s2)cc1 (configuration not stated) | 0.257 µM | IC50 (HEPG2TOX_HILL_SLOPE 0.343, HEPG2TOX_R_SQUARED 0.467, PBLUC_HILL_SLOPE 2.04, PBLUC_R_SQUARED 0.902, read-out: LUCIFERASE INFECTION ASSAY - IC50): 0.0873 µM
13 | CC(C(=O)Nc1cc([N+](=O)[O-])ccc1Cl)N(C)CC(=O)Nc1ccc(Cl)c(C(F)(F)F)c1 (configuration not stated) | > 10 µM | IC50 (HEPG2TOX_HILL_SLOPE 0.377, HEPG2TOX_R_SQUARED 0.303, read-out: LUCIFERASE INFECTION ASSAY - IC50): > 10 µM
14 | Cc1ccc(-n2c(C)cc(C(=O)CSc3nc(N)cc(N)n3)c2C)cc1C | 4.39 µM | IC50 (HEPG2TOX_HILL_SLOPE 0.381, HEPG2TOX_R_SQUARED 0.896, PBLUC_HILL_SLOPE 2.47, PBLUC_R_SQUARED 0.602, read-out: LUCIFERASE INFECTION ASSAY - IC50): 1.81 µM
15 | CC(=O)c1cccc(-c2cnc3ccc(-c4ccoc4)nn23)c1 | 6.77 µM | IC50 (HEPG2TOX_HILL_SLOPE 0.314, HEPG2TOX_R_SQUARED 0.72, PBLUC_HILL_SLOPE 2.12, PBLUC_R_SQUARED 0.552, read-out: LUCIFERASE INFECTION ASSAY - IC50): 2.41 µM
16 | CCOC(=O)c1sc(N)c(C#N)c1CSc1nnnn1-c1ccccc1 | > 10 µM | IC50 (HEPG2TOX_HILL_SLOPE 0.327, HEPG2TOX_R_SQUARED 0.288, read-out: LUCIFERASE INFECTION ASSAY - IC50): > 10 µM

Row | SMILES | IC90 | also measured
17 | CC1CN(CC(O)COCc2ccc(Cl)cc2)CCN1CC(O)COCc1ccc(Cl)cc1 (configuration not stated) | > 10 µM | IC50 (HEPG2TOX_HILL_SLOPE 0.385, HEPG2TOX_R_SQUARED 0.947, PBLUC_HILL_SLOPE 12.7, PBLUC_R_SQUARED 0.144, read-out: LUCIFERASE INFECTION ASSAY - IC50): 9.06 µM
18 | COc1ccc(-c2cnc3cnc(-c4ccccc4C)cn23)cc1 | 0.0475 µM | IC50 (HEPG2TOX_HILL_SLOPE 0.359, HEPG2TOX_R_SQUARED 0.561, PBLUC_HILL_SLOPE 8.88, PBLUC_R_SQUARED 0.713, read-out: LUCIFERASE INFECTION ASSAY - IC50): 0.0371 µM
19 | COc1ccc(OC)c(CCNc2nc3cnc(-c4ccccc4C)cc3n2C)c1 | 0.0474 µM | IC50 (HEPG2TOX_HILL_SLOPE 0.343, HEPG2TOX_R_SQUARED 0.532, PBLUC_HILL_SLOPE 5.82, PBLUC_R_SQUARED 0.631, read-out: LUCIFERASE INFECTION ASSAY - IC50): 0.0325 µM
20 | Nc1nc(N)nc(COC(=O)c2c3c(nc4ccccc24)/C(=C/c2c(F)cccc2Cl)CC3)n1 | > 10 µM | IC50 (HEPG2TOX_HILL_SLOPE 0.332, HEPG2TOX_R_SQUARED 0.762, PBLUC_HILL_SLOPE 7.86, PBLUC_R_SQUARED 0.0482, read-out: LUCIFERASE INFECTION ASSAY - IC50): > 10 µM
21 | Cc1sc2ncnc(Oc3ccc4ccccc4c3)c2c1-c1ccccc1 | > 10 µM | IC50 (HEPG2TOX_HILL_SLOPE 0.313, HEPG2TOX_R_SQUARED 0.61, PBLUC_HILL_SLOPE 2.74, PBLUC_R_SQUARED 0.421, read-out: LUCIFERASE INFECTION ASSAY - IC50): 6.76 µM
22 | COc1ccc(C(=O)N2CCN(c3ncnc4cc(Cl)ccc34)CC2)cc1 | > 10 µM | IC50 (HEPG2TOX_HILL_SLOPE 0.344, HEPG2TOX_R_SQUARED 0.575, PBLUC_HILL_SLOPE 18.9, PBLUC_R_SQUARED 0.0549, read-out: LUCIFERASE INFECTION ASSAY - IC50): 9.92 µM
23 | CCS(=O)(=O)N1CCC(C(=O)Nc2nc3ccc(Oc4ccccc4)cc3s2)CC1 | > 10 µM | IC50 (HEPG2TOX_HILL_SLOPE 0.324, HEPG2TOX_R_SQUARED 0.65, PBLUC_HILL_SLOPE 2.34, PBLUC_R_SQUARED 0.492, read-out: LUCIFERASE INFECTION ASSAY - IC50): 5.6 µM
24 | CC1=C2CCC(C)CC23C2C(=O)N(Cc4ccc(Cl)cc4)C(=O)C2C1C1C(=O)N(Cc2ccc(Cl)cc2)C(=O)C13 (configuration not stated) | > 5.71 µM | IC50 (HEPG2TOX_HILL_SLOPE 0.355, HEPG2TOX_R_SQUARED 0.414, PBLUC_HILL_SLOPE 1.68, PBLUC_R_SQUARED 0.433, read-out: LUCIFERASE INFECTION ASSAY - IC50): 3.28 µM
25 | Cc1oc2c(c1C(=O)N1CCN(CCO)CC1)C(=O)c1ccccc1C2=O | > 10 µM | IC50 (HEPG2TOX_HILL_SLOPE 0.333, HEPG2TOX_R_SQUARED 0.261, PBLUC_HILL_SLOPE 0.243, PBLUC_R_SQUARED 0.141, read-out: LUCIFERASE INFECTION ASSAY - IC50): 8.15 µM
26 | O=C(NC1CC1)c1ccc(-c2cn3c(-c4ccc(C(=O)NC5CC5)cc4)cnc3cn2)cc1 | > 7.54 µM | IC50 (HEPG2TOX_HILL_SLOPE 0.33, HEPG2TOX_R_SQUARED 0.326, PBLUC_HILL_SLOPE 6.32, PBLUC_R_SQUARED 0.0215, read-out: LUCIFERASE INFECTION ASSAY - IC50): > 7.54 µM
27 | CCN(CC)CCn1c(NC(=O)c2cccc3c[nH]nc23)nc2ccccc21 | > 10 µM | IC50 (HEPG2TOX_HILL_SLOPE 0.322, HEPG2TOX_R_SQUARED 0.707, PBLUC_HILL_SLOPE 3.59, PBLUC_R_SQUARED 0.259, read-out: LUCIFERASE INFECTION ASSAY - IC50): 6.09 µM
28 | Cc1csc2ncnc(N3CCN(C(=O)Nc4ccc(Cl)c(Cl)c4)CC3)c12 | > 7.81 µM | IC50 (HEPG2TOX_HILL_SLOPE 0.318, HEPG2TOX_R_SQUARED 0.0791, PBLUC_HILL_SLOPE 1.99, PBLUC_R_SQUARED 0.376, read-out: LUCIFERASE INFECTION ASSAY - IC50): > 7.81 µM
29 | O=C(Nc1nc2ccccn2c1C(=O)NC1CCCC1)c1ccccc1F | 4.76 µM | IC50 (HEPG2TOX_HILL_SLOPE 0.364, HEPG2TOX_R_SQUARED 0.251, PBLUC_HILL_SLOPE 7.71, PBLUC_R_SQUARED 0.78, read-out: LUCIFERASE INFECTION ASSAY - IC50): 3.58 µM
30 | CCc1nn2c(=O)cc(CSc3nccc(C)n3)[nH]c2c1-c1ccc(F)cc1 | > 8.34 µM | IC50 (HEPG2TOX_HILL_SLOPE 0.32, HEPG2TOX_R_SQUARED 0.345, PBLUC_HILL_SLOPE 2.6, PBLUC_R_SQUARED 0.743, read-out: LUCIFERASE INFECTION ASSAY - IC50): 4.67 µM
31 | FC(F)(F)Oc1ccc(-c2cnc3ccc(NCc4ccncc4)nn23)cc1 | 1.17 µM | IC50 (HEPG2TOX_HILL_SLOPE 0.34, HEPG2TOX_R_SQUARED 0.62, PBLUC_HILL_SLOPE 3.72, PBLUC_R_SQUARED 0.739, read-out: LUCIFERASE INFECTION ASSAY - IC50): 0.649 µM
